The values that follow come from patent publication US12692249B2, “WDR5 inhibitors and modulators” (Vanderbilt University, priority 2019, dated 2026).

Experiment [1] deals with WDR5 (Homo sapiens, UniProt P61964). As to the kind of experiment: TR-FRET competition binding assay, displacement of 10mer-Thr-FAM MLL peptide probe from His-tagged WDR5. The conditions noted are these: WDR5-His tag (residues 24-334) 2 nM; 10mer-Thr-FAM 150 nM; 60 min, room temperature; read-out: Ki for Inhibition of WDR5 by TR-FRET assay.
For experiment [2], the system named is MV4:11 human cancer cell lines. As to the kind of experiment: Cellular viability / anti-proliferative assay, CellTiter-Glo, 5 day protocol. Format: cell-based. Conditions: Homo sapiens, MV4-11, 120 h, read-out: GI50 on cellular proliferation of MV4:11 human cancer cell lines. Summed up: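 Luminescent ATP-based viability (CellTiter-Glo) after a 5-day exposure gave GI50 via sigmoidal fitting, averaged over two or more replicates. Compounds spanned 22 two-fold steps down from 30 μM at 0.3% DMSO, on 200 MV-4-11 cells per well grown in IMDM plus 10% FBS.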

Where [3] appears, read: MV4:11 cells, 5 day incubation, CellTiter-Glo, mean of at least two replicates.

Where two headings read alike, the source gives them in different places.

In the case of `Cc1cc(N2CCc3c(cc(Cn4ccnc4)cc3-c3cn(C)nc3C(F)(F)F)C2=O)c2cc(N3CC(F)C3)cc(C#N)c2n1` [Example 203, 4-(7-((1H-Imidazol-1-yl)methyl)-5-(1-methyl-3-(trifluoromethyl)-1H-pyrazol-4-yl)-1-oxo-3,4-dihydroisoquinolin-2(1H)-yl)-6-(3-fluoroazetidin-1-yl)-2-methylquinoline-8-carbonitrile], the Ki in experiment [1] amounted to 0.025 nM. Besides, in experiment [2] (setting [3]), the GI50 is 49 nM.

`CCc1cc(C#N)c2nccc(N3CCc4c(cc(Cn5ccnc5)cc4-c4cn(C)nc4C(F)(F)F)C3=O)c2c1` [Example 204, 4-(7-((1H-Imidazol-1-yl)methyl)-5-(1-methyl-3-(trifluoromethyl)-1H-pyrazol-4-yl)-1-oxo-3,4-dihydroisoquinolin-2(1H)-yl)-6-ethylquinoline-8-carbonitrile]: the Ki in experiment [1] was under 0.02 nM. In addition, the GI50 in experiment [2] (setting [3]) came out at 22 nM.

With `COc1cnc2c(C)ccc(N3CCc4c(cc(Cn5ccnc5)cc4-c4cn(C)nc4C(F)(F)F)C3=O)c2c1` [Example 206, 7-((1H-Imidazol-1-yl)methyl)-2-(3-methoxy-8-methylquinolin-5-yl)-5-(1-methyl-3-(trifluoromethyl)-1H-pyrazol-4-yl)-3,4-dihydroisoquinolin-1(2H)-one], in experiment [1], the Ki was determined as 0.022 nM. Besides, the GI50 in experiment [2] (setting [3]) is 43 nM.

In the case of `CCc1cc2c(N3CCc4c(cc(Cn5ccnc5)cc4-c4cn(C)nc4C(F)(F)F)C3=O)ccnc2c(OC)n1` [Example 207, 7-((1H-Imidazol-1-yl)methyl)-2-(6-ethyl-8-methoxy-1,7-naphthyridin-4-yl)-5-(1-methyl-3-(trifluoromethyl)-1H-pyrazol-4-yl)-3,4-dihydroisoquinolin-1(2H)-one], in experiment [1], the Ki is under 0.02 nM. Further, the GI50 in experiment [2] (setting [3]) was under 20 nM.

For the compound `CCc1cc(N2CCn3cnnc3C2)c2nccc(N3CCc4c(cc(Cn5ccnc5)cc4-c4cn(C)nc4C(F)(F)F)C3=O)c2c1` [Example 208, 7-((1H-Imidazol-1-yl)methyl)-2-(8-(5,6-dihydro-[1,2,4]triazolo[4,3-a]pyrazin-7(8H)-yl)-6-ethylquinolin-4-yl)-5-(1-methyl-3-(trifluoromethyl)-1H-pyrazol-4-yl)-3,4-dihydroisoquinolin-1(2H)-one], in experiment [1], the Ki was under 0.02 nM. Moreover, the GI50 in experiment [2] (setting [3]) is 55 nM.

Consider `CCc1cc(C(=O)NCCNC(=O)c2cnccn2)c2nccc(N3CCc4c(cc(Cn5ccnc5)cc4-c4cn(C)nc4C(F)(F)F)C3=O)c2c1` [Example 209, 4-(7-((1H-Imidazol-1-yl)methyl)-5-(1-methyl-3-(trifluoromethyl)-1H-pyrazol-4-yl)-1-oxo-3,4-dihydroisoquinolin-2(1H)-yl)-6-ethyl-N-(2-(pyrazine-2-carboxamido)ethyl)quinoline-8-carboxamide], for which the Ki in experiment [1] is under 0.02 nM. Further, the GI50 in experiment [2] (setting [3]) was under 20 nM.

Consider `CCc1cnc2cncc(N3CCc4c(cc(Cn5ccnc5)cc4-c4cn(C)nc4C(F)(F)F)C3=O)c2c1` [Example 211, 7-((1H-imidazol-1-yl)methyl)-2-(3-ethyl-1,7-naphthyridin-5-yl)-5-(1-methyl-3-(trifluoromethyl)-1H-pyrazol-4-yl)-3,4-dihydroisoquinolin-1(2H)-one], for which the Ki in experiment [1] is under 0.02 nM. In addition, the GI50 in experiment [2] (setting [3]) was 20 nM.

As to `CCc1cc(C(=O)NCCNC(C)=O)c2nccc(N3CCc4c(cc(Cn5ccnc5)cc4-c4cn(C)nc4C(F)(F)F)C3=O)c2c1` [Example 212, 4-(7-((1H-Imidazol-1-yl)methyl)-5-(1-methyl-3-(trifluoromethyl)-1H-pyrazol-4-yl)-1-oxo-3,4-dihydroisoquinolin-2(1H)-yl)-N-(2-acetamidoethyl)-6-ethylquinoline-8-carboxamide], the Ki in experiment [1] is under 0.02 nM. The GI50 in experiment [2] (setting [3]) came to 35 nM.

As to `CCc1cc(C(=O)NCCNC(=O)c2ccncc2)c2nccc(N3CCc4c(cc(Cn5ccnc5)cc4-c4cn(C)nc4C(F)(F)F)C3=O)c2c1` [Example 213, 4-(7-((1H-imidazol-1-yl)methyl)-5-(1-methyl-3-(trifluoromethyl)-1H-pyrazol-4-yl)-1-oxo-3,4-dihydroisoquinolin-2(1H)-yl)-6-ethyl-N-(2-(isonicotinamido)ethyl)quinoline-8-carboxamide], the Ki in experiment [1] was under 0.02 nM. The GI50 in experiment [2] (setting [3]) was under 20 nM.

For `COc1cnc2cncc(N3CCc4c(cc(Cn5ccnc5)cc4-c4cn(C)nc4C(F)(F)F)C3=O)c2c1` [Example 214, 7-((1H-imidazol-1-yl)methyl)-2-(3-methoxy-1,7-naphthyridin-5-yl)-5-(1-methyl-3-(trifluoromethyl)-1H-pyrazol-4-yl)-3,4-dihydroisoquinolin-1(2H)-one], the Ki in experiment [1] was under 0.02 nM. Besides, the GI50 in experiment [2] (setting [3]) is under 20 nM.

In the case of `CCc1cc(C(=O)NCCNC(=O)c2cscn2)c2nccc(N3CCc4c(cc(Cn5ccnc5)cc4-c4cn(C)nc4C(F)(F)F)C3=O)c2c1` [Example 216, N-(2-(4-(7-((1H-Imidazol-1-yl)methyl)-5-(1-methyl-3-(trifluoromethyl)-1H-pyrazol-4-yl)-1-oxo-3,4-dihydroisoquinolin-2(1H)-yl)-6-ethylquinoline-8-carboxamido)ethyl)thiazole-4-carboxamide], in experiment [1], the Ki is under 0.02 nM. For the same compound, the GI50 in experiment [2] (setting [3]) is under 20 nM.

Consider `CCc1cc(C(=O)NCC2CN(C(C)=O)C2)c2nccc(N3CCc4c(cc(Cn5ccnc5)cc4-c4cn(C)nc4C(F)(F)F)C3=O)c2c1` [Example 218, 4-(7-((1H-Imidazol-1-yl)methyl)-5-(1-methyl-3-(trifluoromethyl)-1H-pyrazol-4-yl)-1-oxo-3,4-dihydroisoquinolin-2(1H)-yl)-N-((1-acetylazetidin-3-yl)methyl)-6-ethylquinoline-8-carboxamide], for which the Ki in experiment [1] was under 0.02 nM. For the same compound, the GI50 in experiment [2] (setting [3]) was 21 nM.

Consider `CCc1cc(C(=O)NCC2CN(C(=O)c3ccncc3)C2)c2nccc(N3CCc4c(cc(Cn5ccnc5)cc4-c4cn(C)nc4C(F)(F)F)C3=O)c2c1` [Example 219, 4-(7-((1H-Imidazol-1-yl)methyl)-5-(1-methyl-3-(trifluoromethyl)-1H-pyrazol-4-yl)-1-oxo-3,4-dihydroisoquinolin-2(1H)-yl)-6-ethyl-N-((1-isonicotinoylazetidin-3-yl)methyl)quinoline-8-carboxamide], for which, in experiment [1], the Ki is under 0.02 nM. Moreover, the GI50 in experiment [2] (setting [3]) is under 20 nM.

As for `CCc1cc(C(=O)NCC2CN(C(=O)c3cscn3)C2)c2nccc(N3CCc4c(cc(Cn5ccnc5)cc4-c4cn(C)nc4C(F)(F)F)C3=O)c2c1` [Example 220, 4-(7-((1H-Imidazol-1-yl)methyl)-5-(1-methyl-3-(trifluoromethyl)-1H-pyrazol-4-yl)-1-oxo-3,4-dihydroisoquinolin-2(1H)-yl)-6-ethyl-N-((1-(thiazole-4-carbonyl)azetidin-3-yl)methyl)quinoline-8-carboxamide], in experiment [1], the Ki was under 0.02 nM. Besides, the GI50 in experiment [2] (setting [3]) was under 20 nM.

With `COc1cnc2cc(C)cc(N3CCc4c(cc(Cn5ccnc5N)cc4-c4cn(C)nc4C(F)(F)F)C3=O)c2c1` [Example 221, 7-((2-Amino-1H-imidazol-1-yl)methyl)-2-(3-methoxy-7-methylquinolin-5-yl)-5-(1-methyl-3-(trifluoromethyl)-1H-pyrazol-4-yl)-3,4-dihydroisoquinolin-1(2H)-one], the Ki in experiment [1] is 0.024 nM. Further, the GI50 in experiment [2] (setting [3]) was under 20 nM.

For `CCc1cc(C(=O)NC2CN(C(=O)C3CCOCC3)C2)c2nccc(N3CCc4c(cc(Cn5ccnc5)cc4-c4cn(C)nc4C(F)(F)F)C3=O)c2c1` [Example 223, 4-(7-((1H-Imidazol-1-yl)methyl)-5-(1-methyl-3-(trifluoromethyl)-1H-pyrazol-4-yl)-1-oxo-3,4-dihydroisoquinolin-2(1H)-yl)-6-ethyl-N-(1-(tetrahydro-2H-pyran-4-carbonyl)azetidin-3-yl)quinoline-8-carboxamide], the Ki in experiment [1] is under 0.02 nM. In addition, the GI50 in experiment [2] (setting [3]) was under 20 nM.

With `CCc1cc(C(=O)NC2CN(C(=O)c3cscn3)C2)c2nccc(N3CCc4c(cc(Cn5ccnc5)cc4-c4cn(C)nc4C(F)(F)F)C3=O)c2c1` [Example 228, 4-(7-((1H-Imidazol-1-yl)methyl)-5-(1-methyl-3-(trifluoromethyl)-1H-pyrazol-4-yl)-1-oxo-3,4-dihydroisoquinolin-2(1H)-yl)-6-ethyl-N-(1-(thiazole-4-carbonyl)azetidin-3-yl)quinoline-8-carboxamide], in experiment [1], the Ki is under 0.02 nM. For the same compound, in experiment [2] (setting [3]), the GI50 is under 20 nM.

Take `CCc1cc(N)c2nccc(N3CCc4c(cc(Cn5ccnc5)cc4-c4cn(C)nc4C(F)(F)F)C3=O)c2c1` [Example 230, 7-((1H-Imidazol-1-yl)methyl)-2-(8-amino-6-ethylquinolin-4-yl)-5-(1-methyl-3-(trifluoromethyl)-1H-pyrazol-4-yl)-3,4-dihydroisoquinolin-1(2H)-one]: the Ki in experiment [1] is under 0.02 nM. The GI50 in experiment [2] is 54 nM.

On to `CCc1cc(-c2cnn(C)c2)c2nccc(N3CCc4c(cc(Cn5ccnc5)cc4-c4cn(C)nc4C(F)(F)F)C3=O)c2c1` [Example 232, 7-((1H-Imidazol-1-yl)methyl)-2-(6-ethyl-8-(1-methyl-1H-pyrazol-4-yl)quinolin-4-yl)-5-(1-methyl-3-(trifluoromethyl)-1H-pyrazol-4-yl)-3,4-dihydroisoquinolin-1(2H)-one], for which the Ki in experiment [1] was under 0.02 nM. The GI50 in experiment [2] (setting [3]) was 38 nM.

With `CCc1cc(C(=O)NCC2CN(C(=O)C3CCOCC3)C2)c2nccc(N3CCc4c(cc(Cn5ccnc5)cc4-c4cn(C)nc4C(F)(F)F)C3=O)c2c1` [Example 233, 4-(7-((1H-Imidazol-1-yl)methyl)-5-(1-methyl-3-(trifluoromethyl)-1H-pyrazol-4-yl)-1-oxo-3,4-dihydroisoquinolin-2(1H)-yl)-6-ethyl-N-((1-(tetrahydro-2H-pyran-4-carbonyl)azetidin-3-yl)methyl)quinoline-8-carboxamide], the Ki in experiment [1] was under 0.02 nM. For the same compound, the GI50 in experiment [2] (setting [3]) was found to be 26 nM.
